Measurements taken from US10987359B2, “Oxadiazepinone derivatives and methods of treating hepatitis B infections” (priority 2016, dated 2021).

Each compound was assayed on HBV (assay: HBV replication inhibition assay (BDNA assay) in HepG2.2.15 cells). Conditions: Hepatitis B virus, HepG2.2.15, HBV replication assay (BDNA assay), HepG2.2.15 cells; read-out: DNA EC50.
Type: cell-based
Procedure, shortened: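 Supernatant encapsidated HBV DNA was measured by bDNA after DNase digestion and proteinase K release. Stably HBV-integrated HepG2.2.15 cells had two 3-day compound exposures (0.5% DMSO). Signals were background-subtracted and normalized to DMSO wells, and EC50 was obtained by four-parameter fit.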
C[C@@H]1Cc2nn3c(c2CN1C(=O)Nc1ccc(F)c(Br)c1)C(=O)N(C)N=C(CO)C3 [Compound 234, (R)-N-(3-bromo-4-fluorophenyl)-4-(hydroxymethyl)-2,9-dimethyl-1-oxo-1,2,5,8,9,11-hexahydro-10H-pyrido[4′,3′:3,4]pyrazolo[5,1-d][1,2,5]triazepine-10-carboxamide] gave an EC50 of 1 to 100 nM. C[C@@H]1Cc2nn3c(c2CN1C(=O)Nc1ccc(F)c(Cl)c1)C(=O)N(C)N=C(CO)C3 [Compound 235, (R)-N-(3-chloro-4-fluorophenyl)-4-(hydroxymethyl)-2,9-dimethyl-1-oxo-1,2,5,8,9,11-hexahydro-10H-pyrido[4′,3′:3,4]pyrazolo[5,1-d][1,2,5]triazepine-10-carboxamide] was tested, and the EC50 was 1 to 100 nM. Compound C[C@@H]1Cc2nn3c(c2CN1C(=O)Nc1ccc(F)c(Br)c1)C(=O)N(C)N=C(COCC(F)F)C3 [Compound 236, (R)-N-(3-bromo-4-fluorophenyl)-4-((2,2-difluoroethoxy)methyl)-2,9-dimethyl-1-oxo-1,2,5,8,9,11-hexahydro-10H-pyrido[4′,3′:3,4]pyrazolo[5,1-d][1,2,5]triazepine-10-carboxamide] has an EC50 of 1 to 100 nM. Compound C[C@@H]1Cc2nn3c(c2CN1C(=O)Nc1ccc(F)c(C#N)c1)C(=O)N(C)N=C(COCC(F)F)C3 [Compound 237, (R)-N-(3-cyano-4-fluorophenyl)-4-((2,2-difluoroethoxy)methyl)-2,9-dimethyl-1-oxo-1,2,5,8,9,11-hexahydro-10H-pyrido[4′,3′:3,4]pyrazolo[5,1-d][1,2,5]triazepine-10-carboxamide] has an EC50 of 1 to 100 nM. C[C@@H]1Cc2nn3c(c2CN1C(=O)Nc1ccc(F)c(C(F)(F)F)c1)C(=O)N(C)N=C(COCC(F)F)C3 [Compound 238, (R)-4-((2,2-difluoroethoxy)methyl)-N-(4-fluoro-3-(trifluoromethyl)phenyl)-2,9-dimethyl-1-oxo-1,2,5,8,9,11-hexahydro-10H-pyrido[4′,3′:3,4]pyrazolo[5,1-d][1,2,5]triazepine-10-carboxamide] showed an EC50 of 100 to 500 nM.
